Tested on: rabbits with acute pulmonary hypertension

| Compound | right ventricular systolic pressure (RVSP) after U46619 infusion (anesthetized rabbits, continuous infusion over 60 mins, RVSP increased from baseline 14±2 mmHg) | RVSP at one min after breathing NO (electrically generated NO (20, 40 or 80 ppm) produced on inspiration by prototype generator, 50% O2, RVSP 30 mmHg before NO breathing, FIG. 14) |
| --- | --- | --- |
| CCCCC[C@H](O)/C=C/[C@@H]1[C@@H](C/C=C\CCCC(=O)O)[C@H]2CO[C@@H]1C2 [U46619] | 28-30 mmHg | – |
| [N]=O [NO, nitric oxide] | – | 24 mmHg |

From patent US11007503B2, “Systems and methods for a cooled nitric oxide generator” (The General Hospital Corporation, priority 2017, dated 2021)
